# Patent US9358238B2, “Method of enhancing the performance of broiler chickens” (Intervet Inc., priority 2012, dated 2016)
# Columns and labels:
# Broiler chickens [1] = conditions: 1 ppm for 18 days (28 to 46 days of age); cited from earlier work
# Broiler chickens [2] = test: Broiler chickens fed zilpaterol daily at 1 ppm from day 8 to day 56 of age (Example 1); assay type: in vivo, chicken
# Description: Broiler chickens were fed zilpaterol every day at 1 ppm from day 8 until day 56 of age. The observed zilpaterol performance response was relatively small. In this study, non significant performance increases in Average Daily Gain (ADG) of 1.3-2.6% and Feed Efficiency (FE) of 0.6%-1.9% were reported.
# [3] = test system: broiler chickens (Cobb 500 strain); test: 42 day floor pen study, performance response of broiler chickens fed zilpaterol for 7 or 14 days (Example 2); assay type: in vivo
# Description: “Feed efficiency” refers to: feed consumed (lbs)/total live body weight (lbs). “Adjusted Feed efficiency” refers to feed consumed (lbs)/(total live body weight (lbs)+body weight (lbs) of mortalities).
# “Average daily gain” refers to body weight gain (lbs)/number of days.
# “Breast weight” refers to breast weight (lbs) at slaughter.
# “Carcass yield” refers to carcass weight (lbs)/live body weight (lbs)×100.
# “Breast yield” refers to breast weight (lbs)/live body weight (lbs)×100.
# Zilpaterol hydrochloride was fed to broiler chickens in a 42 day floor pen study to evaluate the performance response of zilpaterol compared to a non-medicated control group. Six zilpaterol treatment groups consisted of three concentration levels (1, 3, and 5 ppm) and two feeding durations (7 and 14 days) and were administered in feed plus a non medicated control group. A total of 1,680 broiler chickens were allocated by sex to 56 pens with 30 birds/pen, and 4 pens/sex/group (240 birds/group). The 7 day zilpaterol treatments began at day 35 and continued to day 42 of age. The 14 day zilpaterol treatments began at day 28 and continued until day 42 of age.
# Post-treatment, there were no statistically significant 2-way or 3-way interactions of sex with duration of treatment and concentration; therefore pooled results over sex are discussed. A summary of the performance response of broiler chickens fed various levels for zilpaterol (0, 1, 3, 5, ppm) and feeding durations (7, 14 days) compared to the control are shown in the following table:
# A total of 1,680 broiler chickens (Cobb 500 strain) were allocated by sex to 56 pens (28 pens of males, 28 pens of females) with 30 birds per pen according to a randomized complete block design during a 42 day study. The six zilpaterol treatment groups were in a 2×3 factorial arrangement with two feeding durations of 7 or 14 days (i.e., days 35-42 or 28-42 respectively) and three zilpaterol concentration levels of 1, 3, or 5 ppm plus an un-supplemented (negative) control group. Treatment groups were randomly assigned by sex to pens within each block.
# Japanese quails = conditions: 0, 0.2, 0.225, 0.25 mg/kg of live body weight, 21 days, birds at 26 days of age; cited from earlier work
# chickens = conditions: skip a day feeding; 0, 0.2, 0.25, 0.3 mg/kg of live body weight, 20 days from 25 days of age; cited from earlier work
# Broiler chickens [4] = conditions: 0, 5 and 10 mg/kg, 3 to 6 weeks of age; cited from earlier work
# [5] = 1 ppm every day, day 8 until day 56 of age, non significant
# [6] = 1 ppm in feed, 7 days (days 35-42)
# [7] = 1 ppm in feed, 14 days (days 28-42)
# [8] = 3 ppm in feed, 7 days (days 35-42)
# [9] = 3 ppm in feed, 14 days (days 28-42)
# [10] = 5 ppm in feed, 7 days (days 35-42)
# [11] = 5 ppm in feed, 14 days (days 28-42)
smiles,measurement,setting,value
CC(C)(C)NCC(O)c1cc(Cl)c(N)c(Cl)c1 (stereo not drawn) [Clenbuterol],improvement in average daily gain (ADG) above controls,Broiler chickens [1],3.3%
same,improvement in feed efficiency (FE) above controls,Broiler chickens [1],3.0%
"CC(C)NC1CCn2c(=O)[nH]c3cccc(c32)C1O (stereo not drawn) [Zilpaterol, 4,5,6,7-tetrahydro-7-hydroxy-6-(isopropylamino) imidazo[4,5,1-jk]-[1]benzazepin-2(1H)-one]",carcass yield improvement compared to control,"Broiler chickens [2]; 1 ppm daily for 7 weeks, P<0.01",2%
same,performance increase in Average Daily Gain (ADG),Broiler chickens [2]; [5],1.3-2.6%
same,performance increase in Feed Efficiency (FE),Broiler chickens [2]; [5],0.6%-1.9
same,Improvement (%) of Average Daily Gain,"[3]; 0 vs 1 ppm, 7 days",5.4%
same,Improvement (%) of Body Weight Day 42,"[3]; 0 vs 1 ppm, 7 days",2.1%
same,Improvement (%) of Breast Weight,"[3]; 0 vs 1 ppm, 7 days",3.8%
same,Improvement (%) of Carcass Yield,"[3]; 0 vs 1 ppm, 7 days",4.0%
same,Improvement (%) of Feed Efficiency (FE),"[3]; 0 vs 1 ppm, 7 days",8.0%
same,Improvement (%) of Average Daily Gain,"[3]; 0 vs 1 ppm, 14 days",3.3%
same,Improvement (%) of Body Weight Day 42,"[3]; 0 vs 1 ppm, 14 days",3.9%
same,Improvement (%) of Breast Weight,"[3]; 0 vs 1 ppm, 14 days",4.2%
same,Improvement (%) of Carcass Yield,"[3]; 0 vs 1 ppm, 14 days",1.8%
same,Improvement (%) of Feed Efficiency (FE),"[3]; 0 vs 1 ppm, 14 days",3.3%
same,Improvement (%) of Average Daily Gain,"[3]; 0 vs 3 ppm, 7 days",18.5%
same,Improvement (%) of Body Weight Day 42,"[3]; 0 vs 3 ppm, 7 days",3.9%
same,Improvement (%) of Breast Weight,"[3]; 0 vs 3 ppm, 7 days",9.1%
same,Improvement (%) of Carcass Yield,"[3]; 0 vs 3 ppm, 7 days",1.7%
same,Improvement (%) of Feed Efficiency (FE),"[3]; 0 vs 3 ppm, 7 days",25.9%
same,Improvement (%) of Average Daily Gain,"[3]; 0 vs 3 ppm, 14 days",9.2%
same,Improvement (%) of Body Weight Day 42,"[3]; 0 vs 3 ppm, 14 days",5.1%
same,Improvement (%) of Breast Weight,"[3]; 0 vs 3 ppm, 14 days",16.1%
same,Improvement (%) of Carcass Yield,"[3]; 0 vs 3 ppm, 14 days",2.9%
same,Improvement (%) of Feed Efficiency (FE),"[3]; 0 vs 3 ppm, 14 days",9.7%
same,Improvement (%) of Average Daily Gain,"[3]; 0 vs 5 ppm, 7 days",23.8%
same,Improvement (%) of Body Weight Day 42,"[3]; 0 vs 5 ppm, 7 days",4.1%
same,Improvement (%) of Breast Weight,"[3]; 0 vs 5 ppm, 7 days",12.6%
same,Improvement (%) of Carcass Yield,"[3]; 0 vs 5 ppm, 7 days",3.9%
same,Improvement (%) of Feed Efficiency (FE),"[3]; 0 vs 5 ppm, 7 days",33.7%
same,Improvement (%) of Average Daily Gain,"[3]; 0 vs 5 ppm, 14 days",13.7%
same,Improvement (%) of Body Weight Day 42,"[3]; 0 vs 5 ppm, 14 days",8.0%
same,Improvement (%) of Breast Weight,"[3]; 0 vs 5 ppm, 14 days",12.6%
same,Improvement (%) of Carcass Yield,"[3]; 0 vs 5 ppm, 14 days",2.8%
same,Improvement (%) of Feed Efficiency (FE),"[3]; 0 vs 5 ppm, 14 days",9.9%
same,Body Weight Day 42,[3]; [6],4.816 lb
same,Breast Weight,[3]; [6],1.133 lb
same,Breast Yield,[3]; [6],23.91%
same,Carcass Yield,[3]; [6],81.45%
same,Feed Efficiency (FE) (Feed/Gain Ratio),[3]; [6],3.831
same,Body Weight Day 42,[3]; [7],4.898 lb
same,Breast Weight,[3]; [7],1.138 lb
same,Breast Yield,[3]; [7],24.27%
same,Carcass Yield,[3]; [7],79.79%
same,Feed Efficiency (FE) (Feed/Gain Ratio),[3]; [7],2.632
same,Body Weight Day 42,[3]; [8],4.902 lb
same,Breast Weight,[3]; [8],1.191 lb
same,Breast Yield,[3]; [8],23.82%
same,Carcass Yield,[3]; [8],79.71%
same,Feed Efficiency (FE) (Feed/Gain Ratio),[3]; [8],3.085
same,Body Weight Day 42,[3]; [9],4.956 lb
same,Breast Weight,[3]; [9],1.268 lb
same,Breast Yield,[3]; [9],25.11%
same,Carcass Yield,[3]; [9],80.62%
same,Feed Efficiency (FE) (Feed/Gain Ratio),[3]; [9],2.301
same,Body Weight Day 42,[3]; [10],4.910 lb
same,Breast Weight,[3]; [10],1.230 lb
same,Breast Yield,[3]; [10],26.12%
same,Carcass Yield,[3]; [10],81.41%
same,Feed Efficiency (FE) (Feed/Gain Ratio),[3]; [10],2.760
same,Body Weight Day 42,[3]; [11],5.093 lb
same,Breast Weight,[3]; [11],1.230 lb
same,Breast Yield,[3]; [11],24.20%
same,Carcass Yield,[3]; [11],80.51%
same,Feed Efficiency (FE) (Feed/Gain Ratio),[3]; [11],2.295
same,body weight increase versus controls,"[3]; 5 ppm, 14 days (Z5-14d) versus Z0-0d, day 42",0.38 lb
same,reduction of time to reach the target market weight,"[3]; 5 ppm, 14 days, 0.38 lb/0.174 lb/day",approximately 2 days
same,effect on mean mortality rates compared to the control group,"[3]; any level (1, 3, 5 ppm), either feeding duration (7 or 14 day)",no significant effect
same,"breast yield, average of the zilpaterol treatment groups","[3]; average over 1, 3, 5 ppm and 7, 14 days, control 25.46%",24.57%
same,feed conversion ratio,Japanese quails,improved
same,"weight gain, final body weight, feed intake and carcass, thigh, breast liver and carcass weight",Japanese quails,not a significant difference
same,feed efficiency,chickens,improved
CC(CCc1ccc(O)cc1)NCC(O)c1ccc(O)cc1 (stereo not drawn) [ractopamine],daily body weight gain,Broiler chickens [4],not significantly affected
same,feed conversion,Broiler chickens [4],not significantly affected
same,feed intake,Broiler chickens [4],not significantly affected
